Target: PIK3CA (human) (UniProt P42336)
Assay: Assessment of PIK3CA Kinase Activity

Sequence of PIK3CA (human) (P42336 whole entry, looked up): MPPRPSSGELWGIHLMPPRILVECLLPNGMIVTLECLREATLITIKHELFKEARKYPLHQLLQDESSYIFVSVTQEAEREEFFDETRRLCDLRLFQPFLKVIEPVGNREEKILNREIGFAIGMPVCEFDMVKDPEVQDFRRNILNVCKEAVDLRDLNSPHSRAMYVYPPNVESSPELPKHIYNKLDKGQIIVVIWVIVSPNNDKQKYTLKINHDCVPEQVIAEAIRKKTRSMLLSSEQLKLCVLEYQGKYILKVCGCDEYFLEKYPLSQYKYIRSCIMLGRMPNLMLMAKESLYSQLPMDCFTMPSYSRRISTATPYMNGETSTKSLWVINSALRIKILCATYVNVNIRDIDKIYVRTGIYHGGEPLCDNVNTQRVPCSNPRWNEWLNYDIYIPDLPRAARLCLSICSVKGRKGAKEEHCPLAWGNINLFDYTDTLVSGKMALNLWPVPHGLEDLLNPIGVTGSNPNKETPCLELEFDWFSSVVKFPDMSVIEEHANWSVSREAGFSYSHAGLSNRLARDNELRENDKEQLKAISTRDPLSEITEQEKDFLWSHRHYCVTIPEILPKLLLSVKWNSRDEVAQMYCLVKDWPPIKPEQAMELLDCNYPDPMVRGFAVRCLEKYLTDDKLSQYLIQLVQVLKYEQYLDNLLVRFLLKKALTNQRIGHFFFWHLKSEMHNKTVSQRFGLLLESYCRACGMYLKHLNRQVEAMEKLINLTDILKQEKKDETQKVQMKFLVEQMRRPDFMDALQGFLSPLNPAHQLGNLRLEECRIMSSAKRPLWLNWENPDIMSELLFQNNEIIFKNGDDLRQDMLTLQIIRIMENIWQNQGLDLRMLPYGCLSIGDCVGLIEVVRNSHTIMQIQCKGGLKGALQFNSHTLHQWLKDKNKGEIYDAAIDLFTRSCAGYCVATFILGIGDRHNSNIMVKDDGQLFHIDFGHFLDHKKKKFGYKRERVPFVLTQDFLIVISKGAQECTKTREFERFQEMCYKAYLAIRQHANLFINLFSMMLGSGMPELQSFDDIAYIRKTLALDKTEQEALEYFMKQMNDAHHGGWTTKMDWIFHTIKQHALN

| IC50 [µM] | Compound |
| --- | --- |
| < 1 | Cc1nn(C)c(=O)n1-c1nc2c(s1)CCOc1cc(-c3cnn(CC(C)(C)O)c3)ccc1-2 |
| < 1 | CC(C)n1ncnc1-c1nc2c(s1)CCOc1cc(C3CN(C(C)(C)CO)C3)ccc1-2 |
| < 1 | Fc1ccc(-n2ncnc2-c2cc3c(s2)-c2nc(NCCc4ccccc4)ccc2OCC3)c(F)c1 |
| < 1 | Cc1nc(-c2nc3c(s2)CCOc2cc(C(C)NC(N)=O)ccc2-3)n(C(C)C)n1 (stereo not drawn) |
| < 1 | CC(C)n1ncnc1-c1nc2c(s1)CCOc1cc(C3CCN(CC(N)=O)CC3)ccc1-2 |
| < 1 | Cc1ccc(-c2ccc3c(n2)-c2sc(-c4ncnn4-c4ccc(F)cc4F)cc2CCO3)cn1 |
| < 1 | CNC(=O)C(C)(C)N1CC(c2ccc3c(c2)OCCc2sc(-c4ncnn4C(C)C)nc2-3)C1 |
| < 1 | OCCNc1ccc(-c2ccc3c(n2)-c2sc(-c4ncnn4-c4ccc(F)cc4F)cc2CCO3)cn1 |
| < 1 | O=C(O)Cn1cc(-c2ccc3c(c2)OCCc2sc(-c4ncnn4CC(F)(F)F)nc2-3)cn1 |
| < 1 | CC(C)n1ncnc1-c1nc2c(s1)CCOc1ccc(-c3ccc[nH]c3=O)cc1-2 |
| < 1 | CN1CC(Nc2ccc3c(n2)-c2sc(-c4ncnn4-c4ccc(F)cc4F)cc2CCO3)C1 |
| < 1 | CN(CCc1ccccn1)C(=O)c1nc2c(s1)CCOc1cc(-c3cn[nH]c3)ccc1-2 |
| < 1 | O=C(c1nc2c(s1)CCOc1cc(-c3cn[nH]c3)ccc1-2)N1CCN(C(=O)C(F)(F)F)CC1 |
| < 1 | CC(=O)N1CC(n2c(Cl)cnc2-c2nc3c(s2)CCOc2cc(-c4cnn(CC(C)(C)O)c4)ccc2-3)C1 |
| < 1 | CC(C)n1ncnc1-c1nc2c(s1)CCOc1ccc(C3CN(Cc4ccc(F)cc4F)C3)cc1-2 |
| < 1 | O=C(c1nc2c(s1)CCOc1cc(-c3cn[nH]c3)ccc1-2)N1CCC1 |
| < 1 | CC(CO)n1ncnc1-c1nc2c(s1)CCOc1cc(-c3cnn(CC(C)(C)O)c3)ccc1-2 (stereo not drawn) |
| < 1 | Fc1ccc(-n2ncnc2-c2cc3c(s2)-c2nc(N4CCN(CC(F)(F)F)CC4)ccc2OCC3)c(F)c1 |
| < 1 | O=C(c1nc2c(s1)CCOc1cc(-c3cn[nH]c3)ccc1-2)N(CCO)C1CCCC1 |
| < 1 | CC(O)c1ccc2c(c1)OCCc1sc(-c3ncnn3CC(F)(F)F)nc1-2 (stereo not drawn) |
| < 1 | CC(C)n1ncnc1-c1nc2c(s1)CCOc1cc(C3CN(S(=O)(=O)CCN(C)C)C3)ccc1-2 |
| < 1 | CC(C)n1ncnc1-c1nc2c(s1)CCOc1cc(C3CN(S(=O)(=O)CCO)C3)ccc1-2 |
| < 1 | CC(C)n1ncnc1-c1nc2c(s1)CCOc1ccc(-c3cccn(C)c3=O)cc1-2 |
| < 1 | CC(C)n1cnnc1-c1nc2c(s1)CCOc1cc(C(=O)Nc3ccon3)ccc1-2 |

| IC50 [µM] | Compound |
| --- | --- |
| < 1 | CC(C)n1nc(N)nc1-c1nc2c(s1)CCOc1ccc(F)cc1-2 |
| < 1 | NC(=O)Cn1cc(-c2ccc3c(c2)OCCc2sc(-c4ncnn4CC(F)(F)F)nc2-3)cn1 |
| < 1 | Fc1ccc(-n2ncnc2-c2cc3c(s2)-c2nc(NC4CNC4)ccc2OCC3)c(F)c1 |
| < 1 | OCCn1cc(-c2ccc3c(c2)OCCc2sc(-c4ncnn4-c4ccc(F)cc4F)nc2-3)cn1 |
| < 1 | CC(C)(CN)n1cc(-c2ccc3c(c2)OCCc2sc(-c4ncnn4CC(F)(F)F)nc2-3)cn1 |
| < 1 | CCOc1ncccc1-c1ccc2c(c1)-c1nc(-c3ncnn3C(C)C)sc1CCO2 |
| < 1 | COc1ccc(-c2ccc3c(c2)-c2nc(-c4ncnn4C(C)C)sc2CCO3)cn1 |
| < 1 | CC1(C)C(=O)NC(=O)N1c1nc2c(s1)CCOc1ccccc1-2 |
| < 1 | CN(CC(=O)N1CCOCC1)C(=O)c1nc2c(s1)CCOc1cc(-c3cn[nH]c3)ccc1-2 |
| < 1 | Cc1noc(C)c1-c1ccc2c(c1)OCCc1sc(C(=O)N(CCO)C(C)C)nc1-2 |
| < 1 | CC(C)n1ncnc1-c1nc2c(s1)CCOc1cc(C3CCN(S(C)(=O)=O)C3)ccc1-2 (stereo not drawn) |
| < 1 | O=C(c1nc2c(s1)CCOc1cc(-c3cn[nH]c3)ccc1-2)N1CCCC[C@@H]1CO |
| < 1 | CN1C(=O)N(c2nc3c(s2)CCOc2cc(-c4cnn(CC(C)(C)O)c4)ccc2-3)C(C)(C)C1=O |
| < 1 | CC(C)(C)C1CCN(C(=O)c2nc3c(s2)CCOc2cc(-c4cn[nH]c4)ccc2-3)CC1 |
| < 1 | O=S1(=O)CCN(c2ccc3c(n2)-c2sc(-c4ncnn4-c4ccc(F)cc4F)cc2CCO3)CC1 |
| < 1 | CC(C)n1ncnc1-c1nc2c(s1)CCOc1cc(-c3ccc(=O)[nH]c3)ccc1-2 |
| < 1 | COCc1nc(-c2nc3c(s2)CCOc2ccccc2-3)n(C(C)C)n1 |
| < 1 | O=C(c1nc2c(s1)CCOc1cc(-c3cn[nH]c3)ccc1-2)N1CCC(F)(F)CC1 |
| < 1 | COCCN1CCN(C(=O)c2nc3c(s2)CCOc2cc(-c4cn[nH]c4)ccc2-3)CC1 |
| < 1 | CN(C)S(=O)(=O)N1CCN(C(=O)c2nc3c(s2)CCOc2cc(-c4cn[nH]c4)ccc2-3)CC1 |
| < 1 | Cc1nc(-c2nc3c(s2)CCOc2cc(C4CN(CC(=O)NC(C)C)C4)ccc2-3)n(C(C)C)n1 |
| < 1 | COCCN1CC(c2ccc3c(c2)OCCc2sc(-c4nc(C)nn4C(C)C)nc2-3)C1 |
| < 1 | CNC(=O)Cn1cccc(-c2ccc3c(c2)-c2nc(-c4ncnn4C(C)C)sc2CCO3)c1=O |
| < 1 | CN1CCC(CNc2ccc3c(n2)-c2sc(-c4ncnn4-c4ccc(F)cc4F)cc2CCO3)C1 (stereo not drawn) |

| IC50 [µM] | Compound |
| --- | --- |
| < 1 | O=C(c1nc2c(s1)CCOc1cc(-c3cn[nH]c3)ccc1-2)N1CCCN(c2ccccn2)CC1 |
| < 1 | OCCn1cc(-c2ccc3c(c2)OCCc2sc(-c4ncnn4CCN4CCOCC4)nc2-3)cn1 |
| < 1 | CC(C)n1ncnc1-c1nc2c(s1)CCOc1ccc(-c3cc[nH]c(=O)c3)cc1-2 |
| < 1 | O=C(c1nc2c(s1)CCOc1cc(-c3cn[nH]c3)ccc1-2)N1CC[C@@H](N2CCOCC2)C1 |
| < 1 | CCN(CC)C(=O)c1nc2c(s1)CCOc1cc(-c3cn[nH]c3)ccc1-2 |
| < 1 | CC(C)n1ncnc1-c1nc2c(s1)CCOc1ccc(-c3cnn(S(=O)(=O)c4ccccc4)c3)cc1-2 |
| < 1 | C[C@@H]1CN(c2ccc3c(n2)-c2sc(-c4ncnn4-c4ccc(F)cc4F)cc2CCO3)C[C@H](C)N1C(=O)C(F)(F)F |
| < 1 | CC(C)(N)Cn1cc(-c2ccc3c(c2)OCCc2sc(-c4ncnn4CC(F)(F)F)nc2-3)cn1 |
| < 1 | O=C(c1nc2c(s1)CCOc1cc(-c3cn[nH]c3)ccc1-2)N1CCN2CCCC[C@@H]2C1 |
| < 1 | NCCn1cc(-c2ccc3c(c2)OCCc2sc(-c4ncnn4CC(F)(F)F)nc2-3)cn1 |
| < 1 | C[C@H](O)Cn1cc(-c2ccc3c(c2)OCCc2sc(-c4ncnn4CC(F)(F)F)nc2-3)cn1 |
| < 1 | COCCOc1ncccc1-c1ccc2c(c1)-c1nc(-c3ncnn3C(C)C)sc1CCO2 |
| < 1 | CC(C)n1ncnc1-c1nc2c(s1)CCOc1cc(-c3cccc(CC(N)=O)c3)ccc1-2 |
| < 1 | CC(C)(O)Cn1cc(-c2ccc3c(c2)OCCc2sc(C(=O)N(CCO)C4CCOCC4)nc2-3)cn1 |
| < 1 | Cc1nc(-c2nc3c(s2)CCOc2cc(-c4cnn(C5CN(CC(C)(C)O)C5)c4)ccc2-3)n(C(C)C)n1 |
| < 1 | CC(C)n1ncnc1-c1nc2c(s1)CCOc1ccc(-c3cccn(C(C)C)c3=O)cc1-2 |
| < 1 | CNC(=O)c1ccc2c(c1)OCCc1cc(C(=O)N(C)c3cc(C(=O)NCCO)ccc3Cl)sc1-2 |
| < 1 | CC(C)n1ncnc1-c1cc2c(s1)-c1ccc(-c3cccc(S(C)(=O)=O)c3)cc1OCC2 |
| < 1 | CC(C)(O)Cn1cc(-c2ccc3c(c2)OCCc2sc(-c4ncnn4C4CCN(CCO)CC4)nc2-3)cn1 |
| < 1 | CC(C)n1ncnc1-c1nc2c(s1)CCOc1ccc(C3CCN(C(=O)[C@H](C)O)CC3)cc1-2 |
| < 1 | FC(F)(F)Cn1ncnc1-c1nc2c(s1)CCOc1ccc(-c3cnn(CCN4CCOCC4)c3)cc1-2 |
| < 1 | COCCN1CCC(c2ccc3c(c2)OCCc2sc(-c4ncnn4C(C)C)nc2-3)CC1 |
| < 1 | Cc1nc(-c2nc3c(s2)CCOc2cc(C4CN(CCCO)C4)ccc2-3)n(C(C)C)n1 |
| < 1 | CC(=O)N1CCN(c2ccc3c(n2)-c2sc(-c4ncnn4-c4ccc(F)cc4F)cc2CCO3)CC1 |

| IC50 [µM] | Compound |
| --- | --- |
| < 1 | O=C(O)CNc1ccc2c(n1)-c1sc(-c3ncnn3-c3ccc(F)cc3F)cc1CCO2 |
| < 1 | CC(C)CCN(C)C(=O)c1nc2c(s1)CCOc1cc(-c3cn[nH]c3)ccc1-2 |
| < 1 | CN1CCC(N(C)C(=O)c2nc3c(s2)CCOc2cc(-c4cn[nH]c4)ccc2-3)C1 (stereo not drawn) |
| < 1 | CC(C)n1ncnc1-c1nc2c(s1)CCOc1cc(C3CCN(CCO)CC3)ccc1-2 |
| < 1 | NC(=O)CNc1ccc2c(n1)-c1sc(-c3ncnn3-c3ccc(F)cc3F)cc1CCO2 |
| < 1 | O=C(c1nc2c(s1)CCOc1cc(-c3cn[nH]c3)ccc1-2)N1CCN(C[C@H]2CCCO2)CC1 |
| < 1 | CC(C)n1ncnc1-c1nc2c(s1)CCOc1ccc(-c3ccc(S(C)(=O)=O)cc3)cc1-2 |
| < 1 | CC(C)n1ncnc1-c1nc2c(s1)CCOc1ccc(-c3ccc(=O)[nH]c3)cc1-2 |
| < 1 | CC(C)n1ncnc1-c1nc2c(s1)CCOc1cc(C(=O)NCCOCCO)ccc1-2 |
| < 1 | Cn1cc(-c2ccc3c(n2)-c2sc(-c4ncnn4-c4ccc(F)cc4F)cc2CCO3)cn1 |
| < 1 | O=C1CN(c2ccc3c(n2)-c2sc(-c4ncnn4-c4ccc(F)cc4F)cc2CCO3)CCN1 |
| < 1 | Cc1nc(N)ncc1-c1ccc2c(c1)-c1nc(C(=O)N(CCO)C(C)C)sc1CCO2 |
| < 1 | O=C(c1nc2c(s1)CCOc1cc(-c3cn[nH]c3)ccc1-2)N1CCCN(c2ccncc2)CC1 |
| < 1 | Fc1ccc(-n2ncnc2-c2cc3c(s2)-c2nc(NC4COC4)ccc2OCC3)c(F)c1 |
| < 1 | CC(C)n1ncnc1-c1nc2c(s1)CCOc1ccc(-c3ccc(F)nc3)cc1-2 |
| < 1 | CNc1ccc(-c2ccc3c(c2)-c2nc(C(=O)N(CCO)C(C)C)sc2CCO3)cn1 |
| < 1 | CC(C)n1ncnc1-c1nc2c(s1)CCOc1ccc(C3CN(S(=O)(=O)CCO)C3)cc1-2 |
| < 1 | O=C(O)C1CCCN(C(=O)c2nc3c(s2)CCOc2cc(-c4cn[nH]c4)ccc2-3)C1 (stereo not drawn) |
| < 1 | O=C(c1nc2c(s1)CCOc1cc(-c3cn[nH]c3)ccc1-2)N1CCC(c2ccc(F)cc2F)CC1 |
| < 1 | O=C(c1nc2c(s1)CCOc1cc(-c3cn[nH]c3)ccc1-2)N1CCNCC1 |
| < 1 | Cc1cccc(N2CCN(C(=O)c3nc4c(s3)CCOc3cc(-c5cn[nH]c5)ccc3-4)CC2)n1 |

Source: the Kinase Knowledgebase extract (Sharma et al. 2016)
